Molecules are shown by their SMILES.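 Following 48 hours of exposure in 96-well plates, responses at five concentrations were used to interpolate endpoints linearly. Abbreviation: GI50, concentration required for 50% inhibition of growth. Definition used: TGI = concentration required for complete inhibition of growth.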 A value given as a limit tells only on which side of the number the result lay.

Some test systems named below: SK-OV-3 ovarian; HCT-15 colon; OVCAR-8 ovarian; OVCAR-3 ovarian; EKVX NSCLC; HCT-116 colon; SF-295 CNS; UO-31 renal; LOX IMVI melanoma; MDA-MB-231 breast.
Test in all cases: inhibition of tumour cell growth, NCI panel, 48 h

On to `CCC(C)(O)c1cn(-c2ccc(Cl)cc2)nn1` (stereo not given), for which the TGI in the assay on SK-OV-3 ovarian, in the assay on HCT-15 colon, in the assay on OVCAR-8 ovarian, in the assay on OVCAR-3 ovarian, in the assay on EKVX NSCLC and in the assay on HCT-116 colon was above 100 µM throughout. In addition, the TGI with SF-295 CNS, in the assay with UO-31 renal and in the assay with LOX IMVI melanoma was above 100 µM throughout.
For `C1CSC[C@H]2COC[C@@H](CSCCS1)S2`, the TGI with HCT-15 colon, in the assay with OVCAR-8 ovarian, in the assay with OVCAR-3 ovarian, in the assay with EKVX NSCLC, with MDA-MB-231 breast and in the assay with HCT-116 colon was above 100 µM throughout. Also, the TGI in the assay with SF-295 CNS, in the assay with UO-31 renal and in the assay with LOX IMVI melanoma was above 100 µM each time.
Consider `CN1CCN=C1c1nnn(-c2ccc([N+](=O)[O-])cc2)c1-c1ccccc1`, for which the TGI with SK-OV-3 ovarian, in the assay on HCT-15 colon, in the assay with OVCAR-8 ovarian, with OVCAR-3 ovarian, in the assay on EKVX NSCLC and in the assay with HCT-116 colon was above 100 µM each time. Also, the TGI in the assay with SF-295 CNS, in the assay on UO-31 renal and in the assay on LOX IMVI melanoma was above 100 µM in each case.
In the case of `CC1=NN(c2ccccc2)C(=O)C12[C@H](c1ccccc1)C2(C#N)C#N` (stereo not given in full), the TGI with SK-OV-3 ovarian is 32.7 µM; in the assay on HCT-15 colon it was 13.9 µM; in the assay on OVCAR-8 ovarian, 7.27 µM; with OVCAR-3 ovarian, 19.5 µM; in the assay with EKVX NSCLC it was 33.6 µM; in the assay on HCT-116 colon, 12 µM. Further, the TGI was 25.5 µM with SF-295 CNS, 27.9 µM with UO-31 renal and 4.63 µM in the assay on LOX IMVI melanoma.
For `CC12OC(C(=O)C13CC3)C1C(=O)c3c(O)ccc(O)c3C(=O)C12` (stereo not given), the GI50 in the assay on SK-OV-3 ovarian is 24.6 µM; in the assay on HCT-15 colon it was 11 µM; in the assay with OVCAR-8 ovarian it was 15.6 µM; with EKVX NSCLC it was 12.1 µM; with MDA-MB-231 breast it was 24.6 µM; in the assay with HCT-116 colon it was 14.3 µM. In addition, in the assay on UO-31 renal, the GI50 was 22.8 µM. Also, the TGI in the assay with SK-OV-3 ovarian came to 78 µM; in the assay on HCT-15 colon, 24.7 µM; in the assay on OVCAR-8 ovarian it was 36.1 µM; in the assay on EKVX NSCLC, 48.3 µM; in the assay on MDA-MB-231 breast it was 46.6 µM; with HCT-116 colon, 28.2 µM. The compound also registered a TGI with UO-31 renal of 55.6 µM.
Consider `O=C1CC(C2(O)C(=O)Nc3ccc([N+](=O)[O-])cc32)c2ccccc21` (stereo not given), for which the TGI in the assay on SK-OV-3 ovarian was above 100 µM; in the assay with HCT-15 colon, 37.8 µM; with OVCAR-8 ovarian, above 100 µM; with OVCAR-3 ovarian, 67.7 µM; in the assay on EKVX NSCLC, above 100 µM; with HCT-116 colon it was above 100 µM. Moreover, the TGI is above 100 µM in the assay on SF-295 CNS, above 100 µM in the assay on UO-31 renal and 33 µM with LOX IMVI melanoma.
With `CC(C)C1(NC(=O)C2CC3c4cccc5[nH]cc(c45)CC3N(C)C2)OC2(O)C3CCCN3C(=O)C(Cc3ccccc3)N2C1=O` (stereo not given), the TGI was above 100 µM in the assay with HCT-15 colon; above 100 µM in the assay with OVCAR-8 ovarian; above 100 µM in the assay with OVCAR-3 ovarian; above 100 µM with EKVX NSCLC; 56.7 µM in the assay on MDA-MB-231 breast; above 100 µM with HCT-116 colon. For the same compound, the TGI was above 100 µM in the assay on SF-295 CNS, above 100 µM with UO-31 renal and 47.7 µM in the assay on LOX IMVI melanoma.
In the case of `C=CCC12CC(=O)CCC1c1ccc(OC)cc1C2=O` (stereo not given), the TGI in the assay with SK-OV-3 ovarian, in the assay on HCT-15 colon, in the assay with OVCAR-8 ovarian, in the assay with OVCAR-3 ovarian, in the assay on EKVX NSCLC and in the assay on HCT-116 colon was above 100 µM in each case. The TGI in the assay with SF-295 CNS, with UO-31 renal and with LOX IMVI melanoma was above 100 µM throughout.
In the case of `COC(=O)/C(C#N)=C1\CCC(OC)N1C` (stereo not given), the TGI in the assay with SK-OV-3 ovarian, with HCT-15 colon, in the assay on OVCAR-8 ovarian, in the assay with OVCAR-3 ovarian, with EKVX NSCLC and in the assay with HCT-116 colon was above 100 µM in each case. The TGI with SF-295 CNS, with UO-31 renal and in the assay with LOX IMVI melanoma was above 100 µM each time.
Take `CC1CCCC(C#N)(NOC2=NCCN2)C1` (stereo not given): the GI50 with HCT-15 colon is 44.6 µM; with OVCAR-8 ovarian, 41 µM; in the assay with OVCAR-3 ovarian, 43 µM; in the assay on EKVX NSCLC it was 0.0758 µM; with MDA-MB-231 breast, 19.4 µM; with HCT-116 colon, 31.7 µM. Further, the GI50 in the assay on SF-295 CNS is 31 µM; with UO-31 renal, 31.8 µM; with LOX IMVI melanoma it was 12.7 µM. For the same compound, the TGI is above 100 µM in the assay on HCT-15 colon; above 100 µM in the assay on OVCAR-8 ovarian; above 100 µM with OVCAR-3 ovarian; 28.2 µM in the assay with EKVX NSCLC; above 100 µM in the assay with MDA-MB-231 breast; above 100 µM in the assay on HCT-116 colon. The TGI is above 100 µM in the assay on SF-295 CNS, above 100 µM in the assay on UO-31 renal and 25.4 µM in the assay on LOX IMVI melanoma.
As to `CCCCCCC(=O)C/C(CCC(=O)N(Cc1ccccc1)Cc1ccccc1)=N\NC(N)=O`, the TGI in the assay with SK-OV-3 ovarian, in the assay on HCT-15 colon, with OVCAR-8 ovarian, in the assay on OVCAR-3 ovarian, in the assay on EKVX NSCLC and in the assay on HCT-116 colon was above 100 µM each time. The TGI in the assay on SF-295 CNS, with UO-31 renal and with LOX IMVI melanoma was above 100 µM each time.
With `CC(C)C[C@H](NC(=O)Cn1cccc(CNC(=O)c2ccccc2)c1=O)B(O)O`, the GI50 was 1.2 µM with SK-OV-3 ovarian; 4.7 µM in the assay with HCT-15 colon; 4.23 µM in the assay with OVCAR-8 ovarian; 0.214 µM with OVCAR-3 ovarian; 0.567 µM with MDA-MB-231 breast; 0.337 µM in the assay with HCT-116 colon. Also, the GI50 is 0.442 µM in the assay with SF-295 CNS, 4 µM with UO-31 renal and 0.244 µM with LOX IMVI melanoma. Besides, the TGI was 41 µM in the assay on SK-OV-3 ovarian; 37.3 µM with HCT-15 colon; above 85.7 µM in the assay with OVCAR-8 ovarian; 0.674 µM with OVCAR-3 ovarian; 3.06 µM in the assay with MDA-MB-231 breast; 2.65 µM with HCT-116 colon. Also, the TGI in the assay on SF-295 CNS stood at 2.24 µM; with UO-31 renal it was 23 µM; in the assay with LOX IMVI melanoma, 0.811 µM.
Take `CCC1CCCCN1CC(C(C)=O)C(c1ccccc1)c1c(O)c2ccccc2oc1=O` (stereo not given): the TGI in the assay with SK-OV-3 ovarian, in the assay on HCT-15 colon, in the assay with OVCAR-8 ovarian, with OVCAR-3 ovarian, in the assay with EKVX NSCLC and in the assay on HCT-116 colon was above 100 µM each time. Moreover, the TGI in the assay with SF-295 CNS, in the assay with UO-31 renal and with LOX IMVI melanoma was above 100 µM in each case.

For the origin of these results see PubChem BioAssay (NCI).
